Laboratory results published in patent US11339171B2, “MDM2 inhibitors” (Gan & Lee Pharmaceuticals, priority 2017, dated 2022).

Experiments:
[1] = test system: human osteosarcoma cell line SJSA-1; experiment: Inhibition of proliferation of human osteosarcoma cell line SJSA-1 (DAPI staining, In Cell Analyzer); settings: for IC50: Homo sapiens, SJSA-1, 72 h, read-out: IC50 (nM), inhibitory activity on proliferation of human osteosarcoma cell line SJSA-1, SJSA-1, incubated 72 h; for inhibitory effect on human osteosarcoma cell line SJSA-1 compared with positive control compound HDM201: labels are Example numbers, the compounds with S-configuration are meant
[2] = biological target: T1, MDM2 (Homo sapiens, UniProt Q00987); experiment: Inhibition test of MDM2-P53 (GST-MDM2, Biotin-P53, Anti-GST-Tb, SA-XL665); type: binding; settings: for inhibitory effect on MDM2 compared with positive control compound HDM201: labels are Example numbers, the compounds with S-configuration are meant
T1 construct: made in house
Outline: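 Binding was measured by TR-FRET with GST-MDM2 at 4 nM final in PBS with 0.1% BSA, 5 mM DTT and 1 mM AEBSF. Compounds were tested as twelve-point 5-fold dilutions and incubated with the detection mix for 90 min at 25 °C with shaking before plate-reader reading and curve fitting.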

T1 sequence (Q00987 whole entry): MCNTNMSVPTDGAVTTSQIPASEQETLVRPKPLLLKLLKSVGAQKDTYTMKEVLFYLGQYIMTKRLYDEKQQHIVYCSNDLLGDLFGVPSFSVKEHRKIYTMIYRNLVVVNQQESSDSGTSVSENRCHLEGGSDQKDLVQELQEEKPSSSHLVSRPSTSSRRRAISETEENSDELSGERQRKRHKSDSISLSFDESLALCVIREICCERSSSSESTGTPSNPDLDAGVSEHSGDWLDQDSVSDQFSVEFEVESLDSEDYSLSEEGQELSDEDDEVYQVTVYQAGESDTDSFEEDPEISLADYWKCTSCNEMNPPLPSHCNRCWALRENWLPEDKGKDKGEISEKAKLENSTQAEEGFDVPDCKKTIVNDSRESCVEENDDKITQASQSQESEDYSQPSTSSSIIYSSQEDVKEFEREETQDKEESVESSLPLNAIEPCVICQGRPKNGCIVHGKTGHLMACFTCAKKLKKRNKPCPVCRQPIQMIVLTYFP

Row | SMILES | IC50 [1] | IC50 [2] | inhibitory effect on human osteosarcoma cell line SJSA-1 compared with positive control compound HDM201 [1] | inhibitory effect on MDM2 compared with positive control compound HDM201 [2]
1 | COc1cccc(OC)c1-c1nc2c(n1C(C)C)[C@@]1(C(=O)Nc3cc(Cl)ccc31)N(c1cc(Cl)ccc1C)C2=O [Example S-79, (S)-6-chloro-5′-(5-chloro-2-methylphenyl)-2′-(2,6-dimethoxyphenyl)-3′-isopropyl-3′H-spiro[dihydroindole-3,4′-pyrrolo[3,4-d]imidazole]-2,6′(5′H)-dione] | 72.4 nM | 0.00189 µM |  | 
2 | COc1cc(OC(F)(F)F)ccc1-c1nc2c(n1C(C)C)[C@@]1(C(=O)Nc3cc(Cl)ccc31)N(c1cccc(Cl)c1)C2=O [Example S-120, (S)-6-chloro-5′-(3-chlorophenyl)-3′-isopropyl-2′-(2-methoxy-4-(trifluoromethoxy)phenyl)-3′H-spiro[dihydroindole-3,4′-pyrrolo[3,4-d]imidazole]-2,6′(5′H)-dione] | 364 nM | 0.00901 µM |  | 
3 | COc1cc(N(C)C)ccc1-c1nc2c(n1C(C)C)[C@]1(C(=O)Nc3cc(Cl)ccc31)N(c1cc(Cl)ccc1F)C2=O [Example R-81, (R)-6-chloro-5′-(5-chloro-2-fluorophenyl)-2′-(4-(dimethylamino)-2-methoxyphenyl)-3′-isopropyl-3′H-spiro[dihydroindole-3,4′-pyrrolo[3,4-d]imidazole]-2,6′(5′H)-dione] | 1600 nM | 0.0533 µM |  | 
4 | COc1ccc(C(=O)N(C)C)cc1-c1nc2c(n1C(C)C)C1(C(=O)Nc3cc(Cl)ccc31)N(c1cc(Cl)ccc1C)C2=O (centres unmarked) [Example 22, 3-(6-chloro-5′-(5-chloro-2-methylphenyl)-3′-isopropyl-2,6′-dioxo-5′,6′-dihydro-3′H-spiro[dihydroindole-3,4′-pyrrolo[3,4-d]imidazole]-2′-yl)-4-methoxy-N,N-dimethylbenzamide] |  |  | better | better
5 | COc1ncc(-c2nc3c(n2C(C)C)[C@@]2(C(=O)Nc4cc(Cl)ccc42)N(c2ccc(OC(F)(F)F)c(Cl)c2)C3=O)c(OC)n1 [Example S-161, (S)-6-chloro-5′-(3-chloro-4-(trifluoromethoxy)phenyl)-2′-(2,4-dimethoxypyrimidin-5-yl)-3′-isopropyl-3′H-spiro[dihydroindole-3,4′-pyrrolo[3,4-d]imidazole]-2,6′(5′H)-dione] | 557 nM | 0.00809 µM |  | 
6 | COc1cc(N(C)C)ncc1-c1nc2c(n1C(C)C)C1(C(=O)Nc3cc(Cl)ccc31)N(c1cccc(Cl)c1)C2=O (centres unmarked) [Example 113, 6-chloro-5′-(3-chlorophenyl)-2′-(6-(dimethylamino)-4-methoxypyridin-3-yl)-3′-isopropyl-3′H-spiro[dihydroindole-3,4′-pyrrolo[3,4-d]imidazole]-2,6′(5′H)-dione] |  |  | better | better
7 | COc1cc(N(C)C)c(F)cc1-c1nc2c(n1C(C)C)[C@]1(C(=O)Nc3cc(Cl)ccc31)N(c1cc(Cl)ccc1C)C2=O [Example R-78] | 1360 nM | 0.222 µM |  | 
8 | CCc1ccc(-c2nc3c(n2C(C)C)[C@@]2(C(=O)Nc4cc(Cl)ccc42)N(c2cc(Cl)ccc2C)C3=O)c(OC)c1 [Example S-33, (S)-6-chloro-5′-(5-chloro-2-methylphenyl)-2′-(4-ethyl-2-methoxyphenyl)-3′-isopropyl-3′H-spiro[dihydroindole-3,4′-pyrrolo[3,4-d]imidazole]-2,6′(5′H)-dione] | 9.7 nM | 0.00247 µM |  | 
9 | COc1nc(N2CCC2)ncc1-c1nc2c(n1C(C)C)[C@@]1(C(=O)Nc3cc(Cl)ccc31)N(c1cc(Cl)ccc1C)C2=O [Example S-117, (S)-2′-(2-(12zetidine-1-yl)-4-methoxypyrimidin-5-yl)-6-chloro-5′-(5-chloro-2-methylphenyl)-3′-isopropyl-3′H-spiro[dihydroindole-3,4′-pyrrolo[3,4-d]imidazole]-2,6′(5′H)-dione] | 14.4 nM | 0.00215 µM |  | 
10 | COc1cc(F)ccc1-c1nc2c(n1C(C)C)[C@]1(C(=O)Nc3cc(Cl)ccc31)N(c1cc(Cl)ccc1C)C2=O [Example R-4, (R)-6-chloro-5′-(5-chloro-2-methylphenyl)-2′-(4-fluoro-2-methoxyphenyl)-3′-isopropyl-3′H-spiro[dihydroindole-3,4′-pyrrolo[3,4-d]imidazole]-2,6′(5′H)-dione] | 2190 nM | 0.132 µM |  | 
11 | COc1nc(C)ncc1-c1nc2c(n1C(C)C)[C@@]1(C(=O)Nc3cc(Cl)ccc31)N(c1cc(Cl)ccc1C)C2=O [Example S-118, (S)-6-chloro-5′-(5-chloro-2-methylphenyl)-3′-isopropyl-2′-(4-methoxy-2-methylpyrimidin-5-yl)-3′H-spiro[dihydroindole-3,4′-pyrrolo[3,4-d]imidazole]-2,6′(5′H)-dione] | 107 nM | 0.00351 µM |  | 
12 | COc1cc(N)ccc1-c1nc2c(n1C(C)C)[C@@]1(C(=O)Nc3cc(Cl)ccc31)N(c1ccc(F)c(Cl)c1)C2=O [Example S-73, (S)-2′-(4-amino-2-methoxyphenyl)-6-chloro-5′-(3-chloro-4-fluorophenyl)-3′-isopropyl-3′H-spiro[dihydroindole-3,4′-pyrrolo[3,4-d]imidazole]-2,6′(5′H)-dione] | 251 nM | 0.0011 µM |  | 
13 | CCn1c(-c2cnc(OC)nc2OC)nc2c1[C@]1(C(=O)Nc3cc(Cl)ccc31)N(c1cc(Cl)ccc1C)C2=O [Example R-26, (R)-6-chloro-5′-(5-chloro-2-methylphenyl)-2′-(2,4-dimethoxypyrimidin-5-yl)-3′-ethyl-3′H-spiro[dihydroindole-3,4′-pyrrolo[3,4-d]imidazole]-2,6′(5′H)-dione] | 3650 nM | 0.236 µM |  | 
14 | COc1ncc(-c2nc3c(n2C(C)C)[C@]2(C(=O)Nc4cc(Cl)ccc42)N(c2ccc(OC)c(Cl)c2)C3=O)c(OC)n1 [Example R-48, (R)-6-chloro-5′-(3-chloro-4-methoxyphenyl)-2′-(2,4-dimethoxypyrimidin-5-yl)-3′-isopropyl-3′H-spiro[dihydroindole-3,4′-pyrrolo[3,4-d]imidazole]-2,6′(5′H)-dione] | 3630 nM | 0.196 µM |  | 
15 | COc1ccccc1-c1nc2c(n1C(C)C)[C@]1(C(=O)Nc3cc(Cl)ccc31)N(c1cc(Cl)c(=O)n(C)c1)C2=O [Example R-53, (R)-6-chloro-5′-(5-chloro-1-methyl-6-oxo-1,6-dihydropyridin-3-yl)-3′-isopropyl-2′-(2-methoxyphenyl)-3′H-spiro[dihydroindole-3,4′-pyrrolo[3,4-d]imidazole]-2,6′(5′H)-dione] | 77400 nM | 3.77 µM |  | 
16 | COc1ccncc1-c1nc2c(n1C(C)C)[C@@]1(C(=O)Nc3cc(Cl)ccc31)N(c1cc(Cl)ccc1C)C2=O [Example S-18, (S)-6-chloro-5′-(5-chloro-2-methylphenyl)-3′-isopropyl-2′-(4-methoxypyridin-3-yl)-3′H-spiro[dihydroindole-3,4′-pyrrolo[3,4-d]imidazole]-2,6′(5′H)-dione] | 13.9 nM | 0.00143 µM |  | 
17 | CCOc1cc(OC)c(-c2nc3c(n2C(C)C)C2(C(=O)Nc4cc(Cl)ccc42)N(c2cc(Cl)ccc2C)C3=O)cn1 (centres unmarked) [Example 72, 6-chloro-5′-(5-chloro-2-methylphenyl)-2′-(6-ethoxy-4-methoxypyridin-3-yl)-3′-isopropyl-3′H-spiro[dihydroindole-3,4′-pyrrolo[3,4-d]imidazole]-2,6′(5′H)-dione] |  |  | better | better
18 | COc1nc(N(C)C)ncc1-c1nc2c(n1C(C)C)[C@@]1(C(=O)Nc3cc(Cl)ccc31)N(c1cccc(Cl)c1)C2=O [Example S-112, (S)-6-chloro-5′-(3-chlorophenyl)-2′-(2-(dimethylamino)-4-methoxypyrimidin-5-yl)-3′-isopropyl-3′H-spiro[dihydroindole-3,4′-pyrrolo[3,4-d]imidazole]-2,6′(5′H)-dione] | 90.6 nM | 0.00115 µM |  | 
19 | COc1cc(N(C)C)c(C)cc1-c1nc2c(n1C(C)C)[C@@]1(C(=O)Nc3cc(Cl)ccc31)N(c1cc(Cl)ccc1C)C2=O [Example S-91, (S)-6-chloro-5′-(5-chloro-2-methylphenyl)-2′-(4-(dimethylamino)-2-methoxy-5-methylphenyl)-3′-isopropyl-3′H-spiro[dihydroindole-3,4′-pyrrolo[3,4-d]imidazole]-2,6′(5′H)-dione] | 14.4 nM | 0.00356 µM |  | 
20 | CCOc1ccc(-c2nc3c(n2C(C)C)[C@@]2(C(=O)Nc4cc(Cl)ccc42)N(c2cc(Cl)ccc2C)C3=O)c(OC)c1 [Example S-88, (S)-6-chloro-5′-(5-chloro-2-methylphenyl)-2′-(4-ethoxy-2-methoxyphenyl)-3′-isopropyl-3′H-spiro[dihydroindole-3,4′-pyrrolo[3,4-d]imidazole]-2,6′(5′H)-dione] | 77.3 nM | 0.00234 µM |  | 
21 | Cc1ccc(Cl)cc1N1C(=O)c2nc(-c3ccccc3OC(F)(F)F)n(C(C)C)c2[C@]12C(=O)Nc1cc(Cl)ccc12 [Example R-31, (R)-6-chloro-5′-(5-chloro-2-methylphenyl)-3′-isopropyl-2′-(2-(trifluoromethoxy)phenyl)-3′H-spiro[dihydroindole-3,4′-pyrrolo[3,4-d]imidazole]-2,6′(5′H)-dione] | 3580 nM | 1.4 µM |  | 
22 | COc1ccccc1-c1nc2c(n1C(C)C)[C@]1(C(=O)Nc3cc(Cl)ccc31)N(c1cc(Cl)ccc1C)C2=O [Example R-5, (R)-6-chloro-5′-(5-chloro-2-methylphenyl)-3′-isopropyl-2′-(2-methoxyphenyl)-3′H-spiro[dihydroindole-3,4′-pyrrolo[3,4-d]imidazole]-2,6′(5′H)-dione] | 1600 nM | 0.109 µM |  | 
